Test results from patent US6503935B1, “Imidazoles and related compounds as α1A agonists” (Abbott Laboratories, priority 1998, dated 2003).
Structures can show the parent of a compound that is named as a salt. Where two headings read alike, the source gives them in different places.

How the values were obtained:
[1] = target: T1, α1A (rat submaxillary gland) (Rattus norvegicus, UniProt P43140); experiment: Radioligand binding with [3H]-prazosin, α1A
T1 construct: α1A (rat submaxillary gland); from tissue; host or cells: rat submaxillary gland
T1 sequence (P43140 1-466): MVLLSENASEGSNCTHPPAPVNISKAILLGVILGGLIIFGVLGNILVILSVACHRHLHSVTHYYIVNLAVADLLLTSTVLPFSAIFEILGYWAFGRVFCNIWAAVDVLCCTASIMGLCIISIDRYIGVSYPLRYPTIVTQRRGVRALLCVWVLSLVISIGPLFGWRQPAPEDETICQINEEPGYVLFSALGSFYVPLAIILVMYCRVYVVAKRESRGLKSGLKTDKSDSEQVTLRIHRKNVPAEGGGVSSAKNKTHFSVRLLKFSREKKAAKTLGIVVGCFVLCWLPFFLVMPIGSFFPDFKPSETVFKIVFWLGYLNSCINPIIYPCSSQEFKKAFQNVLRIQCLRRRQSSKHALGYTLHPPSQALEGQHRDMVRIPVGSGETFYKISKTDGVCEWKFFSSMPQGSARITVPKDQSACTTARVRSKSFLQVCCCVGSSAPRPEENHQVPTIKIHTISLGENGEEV
Method in brief: (§1)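 Radioligand binding with [3H]-prazosin: α1A from rat submaxillary gland; α1b hamster receptor and α1d rat receptor, each expressed in mouse fibroblasts.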

[2] = target: T2, α1d (rat receptor expressed in mouse fibroblasts) (Rattus norvegicus, UniProt P23944); experiment: Radioligand binding with [3H]-prazosin, α1d; conditions: read-out: Radioligand Binding Ki α1d (Rat)
T2 construct: expressed in transfected cells; host or cells: mouse fibroblasts
T2 sequence (P23944 1-561): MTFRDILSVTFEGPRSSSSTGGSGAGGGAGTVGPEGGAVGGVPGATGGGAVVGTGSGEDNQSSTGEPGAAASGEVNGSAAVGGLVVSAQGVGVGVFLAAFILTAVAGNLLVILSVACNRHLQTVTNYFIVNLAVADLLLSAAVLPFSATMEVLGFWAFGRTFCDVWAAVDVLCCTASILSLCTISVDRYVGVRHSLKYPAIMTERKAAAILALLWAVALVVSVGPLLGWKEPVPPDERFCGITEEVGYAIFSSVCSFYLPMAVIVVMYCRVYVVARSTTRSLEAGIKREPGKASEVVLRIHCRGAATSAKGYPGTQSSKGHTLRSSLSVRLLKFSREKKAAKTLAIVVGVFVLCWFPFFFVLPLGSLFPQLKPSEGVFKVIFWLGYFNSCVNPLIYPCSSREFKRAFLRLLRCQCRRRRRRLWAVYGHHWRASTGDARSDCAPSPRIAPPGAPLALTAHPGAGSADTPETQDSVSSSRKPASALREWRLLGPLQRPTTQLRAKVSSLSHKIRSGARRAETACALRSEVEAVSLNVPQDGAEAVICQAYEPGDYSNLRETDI
Method in brief: as §1

[3] = target: T3, α1A (rat epididymal vas deferens) (Rattus norvegicus, UniProt P43140); experiment: cell-based; conditions: rat epididymal vas deferens (values marked *); read-out: Agonist Tissue Response (pD2) α1A, test performed using rat epididymal vas deferens (converted)
T3 sequence (P43140 1-466): T1 sequence (P43140 1-466)

α1B (rat spleen) = target: T4, α1B (rat spleen) (Rattus norvegicus, UniProt P15823); experiment: Agonist contraction of smooth muscle tissue, rat spleen; format: cell-based; conditions: read-out: Agonist Tissue Response (pD2) α1B (rat spleen) (converted)
T4 construct: α1B (rat spleen) and α1D (rat aorta) receptors; from tissue; host or cells: rat spleen
T4 sequence (P15823 1-515): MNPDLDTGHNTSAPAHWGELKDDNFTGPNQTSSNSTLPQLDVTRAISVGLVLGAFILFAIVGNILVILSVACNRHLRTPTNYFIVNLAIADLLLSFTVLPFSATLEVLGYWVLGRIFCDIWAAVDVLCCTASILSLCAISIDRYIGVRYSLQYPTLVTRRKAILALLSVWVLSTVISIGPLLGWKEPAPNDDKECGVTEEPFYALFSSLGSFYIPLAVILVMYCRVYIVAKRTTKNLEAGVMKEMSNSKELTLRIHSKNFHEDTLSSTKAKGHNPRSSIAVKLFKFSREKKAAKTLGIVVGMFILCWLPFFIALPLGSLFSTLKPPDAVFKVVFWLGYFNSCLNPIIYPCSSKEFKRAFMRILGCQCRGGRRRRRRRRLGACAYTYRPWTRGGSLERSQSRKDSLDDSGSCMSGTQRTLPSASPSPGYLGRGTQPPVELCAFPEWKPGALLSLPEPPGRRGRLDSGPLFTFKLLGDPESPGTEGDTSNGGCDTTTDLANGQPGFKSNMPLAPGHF

[4] = target: T5, α1b (hamster receptor expressed in mouse fibroblasts) (Mesocricetus auratus, UniProt P18841); experiment: Radioligand binding with [3H]-prazosin, α1b; conditions: read-out: Radioligand Binding Ki α1b (Hamster)
T5 construct: expressed in transfected cells; host or cells: mouse fibroblasts
T5 sequence (P18841 1-515): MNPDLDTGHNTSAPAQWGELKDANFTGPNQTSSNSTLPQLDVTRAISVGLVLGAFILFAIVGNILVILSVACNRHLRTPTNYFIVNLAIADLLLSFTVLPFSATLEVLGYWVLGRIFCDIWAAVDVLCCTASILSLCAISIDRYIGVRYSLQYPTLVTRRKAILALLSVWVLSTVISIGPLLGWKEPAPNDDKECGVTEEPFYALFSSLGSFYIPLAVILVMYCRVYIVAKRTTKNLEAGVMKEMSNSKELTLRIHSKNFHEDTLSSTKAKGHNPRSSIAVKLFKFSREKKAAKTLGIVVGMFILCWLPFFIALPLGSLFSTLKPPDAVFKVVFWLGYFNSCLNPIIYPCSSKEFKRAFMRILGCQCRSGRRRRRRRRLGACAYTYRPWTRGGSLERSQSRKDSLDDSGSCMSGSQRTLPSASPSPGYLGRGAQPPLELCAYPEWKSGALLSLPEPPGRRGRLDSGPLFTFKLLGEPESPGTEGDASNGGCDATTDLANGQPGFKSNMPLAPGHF
Procedure: For purposes of discussing α1 adrenoceptor subtypes, the IUPHAR convention of using lower case letters to define molecular clones and upper case letters to indicate pharmacologically defined adrenoceptors has been followed. Compounds of formula I were evaluated in radioligand binding assays specific for α1A (rat submaxillary gland), α1b (hamster receptor expressed in mouse fibroblasts) and α1d (rat receptor expressed in mouse fibroblasts) using [^3H]-prazosin as the radioligand as described in Knepper, et al. J. Pharm.

α1D (rat aorta) = target: T6, α1D (rat aorta) (Rattus norvegicus, UniProt P23944); experiment: Agonist contraction of smooth muscle tissue, rat aorta; format: cell-based; conditions: read-out: Agonist Tissue Response (pD2) α1D (rat aorta) (converted)
T6 construct: α1B (rat spleen) and α1D (rat aorta) receptors; from tissue; host or cells: rat aorta strips, endothelium removed
T6 sequence (P23944 1-561): T2 sequence (P23944 1-561)

α1A (rabbit urethra) = target: T7, α1A (rabbit urethra) (Oryctolagus cuniculus, UniProt O02824); experiment: Agonist contraction of smooth muscle tissue, rabbit urethra; format: cell-based; conditions: rabbit urethra; read-out: Agonist Tissue Response (pD2) α1A (rab ureth) (converted)
T7 construct: tested for α1A functional activity using rabbit urethra; from tissue; host or cells: rabbit urethra
T7 sequence (O02824 1-466): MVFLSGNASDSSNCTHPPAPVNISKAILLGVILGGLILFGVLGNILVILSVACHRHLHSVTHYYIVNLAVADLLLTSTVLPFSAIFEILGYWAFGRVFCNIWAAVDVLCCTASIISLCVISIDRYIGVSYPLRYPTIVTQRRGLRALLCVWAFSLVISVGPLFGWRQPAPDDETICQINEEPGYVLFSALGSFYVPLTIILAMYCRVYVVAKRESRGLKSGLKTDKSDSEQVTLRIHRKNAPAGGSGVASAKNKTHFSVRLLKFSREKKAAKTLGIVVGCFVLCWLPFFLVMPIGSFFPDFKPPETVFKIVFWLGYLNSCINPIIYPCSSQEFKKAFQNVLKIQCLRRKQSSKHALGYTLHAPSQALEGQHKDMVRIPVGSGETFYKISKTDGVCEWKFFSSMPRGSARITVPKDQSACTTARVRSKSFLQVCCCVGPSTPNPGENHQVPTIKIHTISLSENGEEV
Procedure: Most of the compounds were tested for α1A functional activity using rabbit urethra as follows. Female New Zealand white rabbits (2.0-3.5 Kg) were sedated with CO2 and decapitated. […] Subsequent experimental conditions were as described above for the other tissues. Agonist concentration response curves were cumulative except for the vas deferens assay in which the transient response made such measurements impractical.

Anesthetized Dogs [5] = experiment: Intraurethral pressure (IUP) in anesthetized dogs; format: in vivo, dog; conditions: anesthetized female dogs, iv
From the text: (§2) In vivo Functional Assays-Assessment of Intrurethral Pressure (IUP) and Mean Arterial Pressure (MAP) in Anesthetized Dogs
(§3) Female dogs (Marshall Farms, North Rose, N.Y.) greater that 2 years of age and weighing between 12 and 15 kg were used in these studies. At least 2 weeks prior to any agonist dosing, dogs were instrumented for the chronic measurement of arterial blood pressure by implanting a telemetry transducer/transmitter (TA11PA-C40, Data Sciences International, St. Paul, Minn.) into a carotid artery.
(§4) On the test day, dogs fasted since the previous afternoon were pre-anesthetized with thiopental sodium 15 mg/kg i.v. (Pentothal™, Abbott) and intubated. Anesthesia was maintained by allowing the dog to spontaneously breathe a mixture of isoflurane (2.5 to 3 volume %) and oxygen delivered by a Narkomed Standard anesthesia system (North American Drager, Telford, Pa.). An Abbocath-T™ i.v. catheter (18-G, Abbott) was inserted into the cephalic vein for the administration of agonists. A telemetry receiver (RA1310, DataSciences) was placed under the head of each dog and was interfaced to a computerized data acquisition system (Modular Instruments Inc.(MI2), Malvern, Pa.) which allowed for the continuous calibrated recording of arterial blood pressure which was electronically filtered to determine its mean value (MAP).
(§5) Dogs with chronic telemetry implants anesthetized as described above were placed in dorsal recumbency and a balloon catheter was inserted into the urethral orifice and advanced approximately 15 cm until the tip was well inside the bladder. The balloon was then inflated with 1 ml of room air and the catheter slowly withdrawn until resistance (corresponding to the bladder neck) was evident. The balloon was then deflated and the catheter withdrawn an additional 2 cm. The balloon was then reinflated and its catheter port connected to a Gould Statham P23Dd pressure transducer interfaced to a computerized data acquisition system (Modular Instruments, Inc., Malvern, Pa.) for the measurement of intraurethral pressure. Increasing iv doses of test agonists were administered and the maximum effect of each dose on IUP was recorded. The effect of each dose was allowed to return to baseline before the next dose was given.
(§6) From the resulting dose response curve, an ED5 value, for the dose causing a maximum increase in IUP of 5 mm Hg, could be estimated. An ED20 value for the dose causing a maximum increase in MAP of 20 mm Hg could also be estimated. A selectivity ratio of MAP ED20 vs. IUP ED5 was calculated.

Anesthetized Dogs [6] = experiment: Mean arterial pressure (MAP) in anesthetized dogs; format: in vivo, dog; conditions: iv dose causing a maximum increase in MAP of 20 mm Hg, anesthetized female dogs
From the text: as §2, §3, §4, §5, §6

Anesthetized Dogs [7] = experiment: Intraurethral pressure (IUP) in anesthetized dogs; format: in vivo, dog; conditions: Canis lupus familiaris; iv dose causing a maximum increase in IUP of 5 mm Hg, anesthetized female dogs; read-out: Mean IUP ED5

With `CCn1cnc(C2CCCc3c2ccc(O)c3NS(C)(=O)=O)c1.Cl` (stereo not drawn) [Example 6, N-[5-(1-ethyl-1H-imidazol-4-yl)-2-hydroxy-5,6,7,8-tetrahydro-1-naphthalenyl]methanesulfonamide, hydrochloride] the Ki [1] was 2.08 µM, the Ki [2] was 16.7 µM and the melting point was 230 to 234 °C (dec.).
Work on `C=C(c1cccc(NS(=O)(=O)CC)c1)c1c[nH]cn1` (as salt: maleate) [Example 45, N-{3-[1-(1H-imidazol-4-yl)vinyl]phenyly}ethanesulfonamide, maleate] yielded a melting point of 151 to 155 °C.
`CCCn1cnc(C2CCCc3c2ccc(O)c3NS(C)(=O)=O)c1` (stereo not drawn) [Example 7, N-[2-hydroxy-5-(1-propyl-1H-imidazol-4-yl)-5,6,7,8-tetrahydro-1-naphthalenyl]methanesulfonamide, hydrochloride] gave a Ki [1] of 0.661 µM, a Ki [2] of 3.78 µM and an EC50 [3] greater than 1000 µM. For the same compound, the EC50 (α1B (rat spleen)) was greater than 1000 µM.
`COc1ccc(NS(C)(=O)=O)c2c1C(c1c[nH]cn1)CCC2` (stereo not drawn) (as salt: maleate) [Example 26, N-[5,6,7,8-tetrahydro-(1H-imidazol-4-yl)-4-methoxyy-1-naphthalenyl]methanesulfonamide, maleate] gave a melting point of 181 to 184 °C.
Work on `CN(c1cccc2c1CCCC2c1c[nH]cn1)S(C)(=O)=O` (stereo not drawn) (as salt: maleate) [Example 15, N-[5,6,7,8-tetrahydro-5-(1H-imidazol-4-yl)-1-naphthalenyl]-N-methylmethanesulfonmamide, maleate] yielded a melting point of 146 to 147 °C.
`O=C(Nc1cccc2c1CCCC2c1c[nH]cn1)C(F)(F)F` (stereo not drawn) (as salt: maleate) [Example 17, 2,2,2-trifluoro-N-[5-(1H-imidazol-4-yl)-5,6,7,8-tetahydro-1-naphthalenyl]acetamide, maleate] showed a melting point of 181 to 182 °C.
In the case of `CS(=O)(=O)Nc1c(O)ccc2c1CCCC2c1c[nH]cn1` (stereo not drawn) [Example 2, N-[2-hydroxy-5-(1H-imidazol-4-yl)-5,6,7,8-tetrahydro-1-naphthalenyl]methanesulfonamide, hydrochloride], the Ki [1] is reported as 0.0361 µM, the Ki [4] is reported as 2.52 µM and the Ki [2] is reported as 1.26 µM. It also gave an EC50 [3] of 0.017 µM and an EC50 (α1D (rat aorta)) of 1.91 µM.
With `O=S(=O)(CC(F)(F)F)Nc1cccc2c1CCCC2c1c[nH]cn1` (single isomer, unassigned; (+)) [Example 36, (+)-N-[5,6,7,8-tetrahydro-5-(1H-imidazol-4-yl)-1-naphthalenyl]-2,2,2-trifluoroethanesulfonamide] the Ki ([1]; rat submaxillary gland, [3H]-prazosin) was 0.124 µM, the EC50 (α1A (rabbit urethra)) was 1.86 µM and the “Mean Selectivity Ratio MAP ED20/IUP ED5” value (Anesthetized Dogs [5]) was 3.6. The “Mean MAP ED20” value (Anesthetized Dogs [6]) was 508 nmol/kg and the ED (5 mmHg IUP increase) (Anesthetized Dogs [7]) was 0.156 µmol/kg.
